In article PMC10709440, “High-throughput ligand profile characterization in novel cell lines expressing seven heterologous insect olfactory receptors for the detection of volatile plant biomarkers” (Scientific Reports, 2023):
Where two headings read alike, the source gives them in different places.

Legend:
[1] = biological target: T1, Drosophila OR47a (Drosophila melanogaster, UniProt P81921); experiment: Calcium ion fluorescence (GCaMP6) assay, OR47a stable HEK293 cell line; assay type: cell-based; details: for OR47a response (VUAA1-normalized) at 1 μM / OR47a response (VUAA1-normalized) at 10 μM / OR47a response (VUAA1-normalized) at 100 μM / Average response: OR47a cell line; for OR47a response (VUAA1-normalized) at 1 μM: VOC concentration 1 μM; for OR47a response (VUAA1-normalized) at 10 μM: VOC concentration 10 μM; for OR47a response (VUAA1-normalized) at 100 μM: VOC concentration 100 μM; for Average response: mean of biological replicates
T1 construct: expressed in transfected cells
T1 sequence (P81921 1-385): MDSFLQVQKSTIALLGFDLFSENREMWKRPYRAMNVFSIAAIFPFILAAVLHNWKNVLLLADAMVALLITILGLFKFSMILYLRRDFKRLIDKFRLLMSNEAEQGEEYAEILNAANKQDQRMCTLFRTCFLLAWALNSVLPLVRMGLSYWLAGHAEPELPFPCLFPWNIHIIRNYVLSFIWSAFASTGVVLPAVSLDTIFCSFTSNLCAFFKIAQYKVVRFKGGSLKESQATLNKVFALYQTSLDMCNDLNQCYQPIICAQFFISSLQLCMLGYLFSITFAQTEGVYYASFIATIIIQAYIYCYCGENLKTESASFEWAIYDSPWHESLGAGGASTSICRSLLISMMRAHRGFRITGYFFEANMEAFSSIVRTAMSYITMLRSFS
T1 sequence (Q9VNB5 1-486 partner): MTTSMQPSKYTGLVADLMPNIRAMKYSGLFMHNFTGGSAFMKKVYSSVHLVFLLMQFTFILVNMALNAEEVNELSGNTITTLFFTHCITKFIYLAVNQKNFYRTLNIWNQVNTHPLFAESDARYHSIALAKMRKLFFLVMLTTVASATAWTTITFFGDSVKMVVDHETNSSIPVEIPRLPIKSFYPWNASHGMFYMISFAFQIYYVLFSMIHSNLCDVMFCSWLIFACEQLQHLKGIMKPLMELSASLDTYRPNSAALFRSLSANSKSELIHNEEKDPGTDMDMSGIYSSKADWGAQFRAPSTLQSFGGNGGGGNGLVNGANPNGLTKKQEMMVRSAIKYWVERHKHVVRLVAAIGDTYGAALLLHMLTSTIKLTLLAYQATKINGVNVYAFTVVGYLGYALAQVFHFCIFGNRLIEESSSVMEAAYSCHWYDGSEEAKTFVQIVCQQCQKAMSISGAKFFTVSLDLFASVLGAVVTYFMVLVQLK
Outline: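 HEK293 lines stably expressing each Drosophila OR with GCaMP6, doxycycline-induced (1 μg/mL) 48 or 72 h. Fluorescence recorded 5 s baseline then 30 s after VOC injection at pH 7.3; ΔF=(FMAX−F0)/F0, normalized to 50 µM VUAA1 response per line, triplicate wells averaged; concentration series 0.01–100 μM.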

[2] = test system: OR10a; design: method as in earlier work; details: DoOR database value, ref DoOR, cited from earlier work
[3] = test system: OR13a; design: method as in earlier work; details: DoOR database value, ref DoOR, cited from earlier work
[4] = test system: OR47a; design: method as in earlier work; details: DoOR database value, ref DoOR, cited from earlier work
[5] = test system: OR49b; design: method as in earlier work; details: DoOR database value, ref DoOR, cited from earlier work
[6] = test system: OR85b; design: method as in earlier work; details: DoOR database value, ref DoOR, cited from earlier work
[7] = test system: OR98a; design: method as in earlier work; details: DoOR database value, ref DoOR, cited from earlier work
[8] = HEK293, read-out: OR47a Average response (VUAA1-normalized)
[9] = ligand concentration 1 (unit not given), threshold 0.05, below shown as 0
[10] = ligand concentration 10 (unit not given), threshold 0.05, below shown as 0
[11] = ligand concentration 100 (unit not given), threshold 0.05, below shown as 0
[12] = HEK293, read-out: OR47a response (VUAA1-normalized response)
[13] = concentration 1, normalized fluorescence change, values below 0.05 threshold given as 0
[14] = concentration 10, normalized fluorescence change, values below 0.05 threshold given as 0
[15] = concentration 100, normalized fluorescence change, values below 0.05 threshold given as 0

Compound	Average response ([1]; odorant cc. 1 µM)	Average response ([1]; odorant cc. 10 µM)	Average response ([1]; odorant cc. 100 µM)	DF norm AVERAGE OR47a [1, 9]	DF norm AVERAGE OR47a [1, 10]	DF norm AVERAGE OR47a [1, 11]	activation at 1 µM [1, 12]	activation at 10 µM [1, 12]	activation at 100 µM [1, 12]	OR10a DoOR response [2]	OR13a DoOR response [3]	OR47a DoOR response [4]	OR49b DoOR response [5]	OR85b DoOR response [6]	OR98a DoOR response [7]	DF norm AVERAGE OR47a [1, 13]	DF norm AVERAGE OR47a [1, 14]	DF norm AVERAGE OR47a [1, 15]	further results
CCCOC(C)=O [propyl acetate]	0.00	0.09	0.33	0	0.0896	0.3345													activation at 1 µM [1, 8]: 0%; activation at 10 µM [1, 8]: 9%; activation at 100 µM [1, 8]: 33%; OR47a response (VUAA1-normalized) at 1 μM [1]: 0.00; OR47a response (VUAA1-normalized) at 10 μM [1]: 0.09; OR47a response (VUAA1-normalized) at 100 μM [1]: 0.33; OR10a DoOR response ([2]; OR10a): 0.18; OR13a DoOR response ([3]; OR13a): 0.14; OR47a DoOR response ([4]; OR47a): 0.68; OR49b DoOR response ([5]; OR49b): 0.023; OR85b DoOR response ([6]; OR85b): 0.49; OR98a DoOR response ([7]; OR98a): 0.50
CC/C=C\CCO [Z-3-hexenol]																			OR47a response (VUAA1-normalized) at 1 μM [1]: 0.00; OR47a response (VUAA1-normalized) at 10 μM [1]: 0.0571; OR47a response (VUAA1-normalized) at 100 μM [1]: 0.10; OR10a DoOR response ([2]; OR10a): 0.007; OR13a DoOR response ([3]; OR13a): 0.37; OR47a DoOR response ([4]; OR47a): 0.14; OR49b DoOR response ([5]; OR49b): 0.07; OR85b DoOR response ([6]; OR85b): 0.60; OR98a DoOR response ([7]; OR98a): 0.44
CC(=O)c1ccccc1 [acetophenone]	0.0171	0.00	0.0243	0	0	0	0%	0%	0%	0.64	0.02	0.11	0.07	0.04	0.21				
CCCCCC(O)CC (stereo not drawn) [3-octanol]	0.00	0.00	0.09				0%	0%	9%	0.12	0.58	0.47	0.03	0.68	0.59	0	0	0.08889	
CCCCCC(C)=O [2-heptanone]	0.03	0.19	0.46				0%	19%	46%	0.016	0.26	0.58	0.011	0.65	0.62	0	0.1895	0.4589	activation at 1 µM [1, 8]: 3%; activation at 10 µM [1, 8]: 19%; activation at 100 µM [1, 8]: 46%
C=C1CC/C=C(\C)CC[C@@H]2[C@@H]1CC2(C)C [(-)-trans-caryophyllene]	0.0166	0.0326	0.00				0%	0%	0%	-0.002	0.0851	-0.002	0.001	0.053	-0.004	0	0	0	
CCCC(=O)OCC [ethyl butyrate]	0.00	0.00	0.0448	0	0	0	0%	0%	0%	0.025	0.11	0.26	-0.002	0.21	0.25				
